This is an account of results in article PMC7920804 (Bioorganic & Medicinal Chemistry Letters, 2021).

SMILES strings stand for the structures.

As usually defined, the inhibition is the drop in the measured response relative to a control, in per cent. One may read the Cmax as the peak of the concentration-time curve. Broadly, the IC50 is the point on the concentration scale where inhibition reaches its midpoint.

Sequence of CYP3A4 (P08684 whole entry): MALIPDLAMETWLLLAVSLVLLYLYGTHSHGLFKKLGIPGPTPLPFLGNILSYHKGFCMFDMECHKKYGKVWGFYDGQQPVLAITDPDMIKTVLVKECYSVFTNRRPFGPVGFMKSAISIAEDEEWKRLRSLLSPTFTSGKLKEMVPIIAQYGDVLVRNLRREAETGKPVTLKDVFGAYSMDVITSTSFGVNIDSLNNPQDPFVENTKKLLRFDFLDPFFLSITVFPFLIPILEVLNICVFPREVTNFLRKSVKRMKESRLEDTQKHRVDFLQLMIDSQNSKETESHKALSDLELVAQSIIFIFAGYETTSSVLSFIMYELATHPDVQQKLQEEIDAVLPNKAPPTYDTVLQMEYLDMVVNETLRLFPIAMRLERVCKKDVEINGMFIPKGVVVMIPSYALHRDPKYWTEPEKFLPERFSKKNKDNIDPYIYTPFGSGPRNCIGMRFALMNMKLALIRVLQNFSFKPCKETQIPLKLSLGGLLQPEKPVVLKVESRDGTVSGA

One data set deals with T1, CYP1A2 (Homo sapiens, UniProt P05177).
T1 sequence (P05177 1-516): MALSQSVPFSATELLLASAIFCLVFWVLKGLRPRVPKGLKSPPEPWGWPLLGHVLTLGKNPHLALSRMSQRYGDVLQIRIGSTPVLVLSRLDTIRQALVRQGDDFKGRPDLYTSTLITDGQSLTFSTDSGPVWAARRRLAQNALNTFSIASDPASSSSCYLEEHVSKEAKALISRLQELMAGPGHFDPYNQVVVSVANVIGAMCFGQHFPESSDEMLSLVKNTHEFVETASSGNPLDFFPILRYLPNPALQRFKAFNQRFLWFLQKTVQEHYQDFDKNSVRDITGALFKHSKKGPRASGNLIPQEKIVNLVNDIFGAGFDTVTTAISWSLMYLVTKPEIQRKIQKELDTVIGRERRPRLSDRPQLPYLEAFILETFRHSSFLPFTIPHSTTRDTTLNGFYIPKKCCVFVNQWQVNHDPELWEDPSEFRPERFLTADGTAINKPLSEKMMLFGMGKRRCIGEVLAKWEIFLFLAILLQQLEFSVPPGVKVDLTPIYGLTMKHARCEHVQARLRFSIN
As to the kind of experiment: CYP inhibition assay, 1A2.
Conditions: not given
In kind it is in vitro ADME.
Consider `O=c1[nH]c(Nc2cc(Cl)cc(Cl)c2)nc2cccc(O)c12` [Compound 11e, 2-((3,5-dichlorophenyl)amino)-5-hydroxyquinazolin-4(3H)-one], for which the inhibition at 10 µM was over 65%.

Another data set addresses CYP3A4 (Homo sapiens, UniProt P08684). As to the kind of experiment: CYP inhibition assay, 3A4. It counts as in vitro ADME.
Conditions: not given
In the case of `O=c1[nH]c(Nc2cc(Cl)cc(Cl)c2)nc2cccc(O)c12` [Compound 11e, 2-((3,5-dichlorophenyl)amino)-5-hydroxyquinazolin-4(3H)-one], the inhibition at 10 µM was over 65%.

The next data set concerns SARS-CoV-2.
Assay: not given
Conditions: not given
Consider `O=c1[nH]c(Nc2ccc(F)cc2F)nc2cc(Cl)ccc12` [Compound 9d], for which the “SARS-CoV-2 IC50” value is “no activity”. `O=c1[nH]c(Nc2ccccc2F)nc2cc(Cl)ccc12` [Compound 9a]: the “SARS-CoV-2 IC50” value is on record as “no inhibitory effect”. `COc1cccc2nc(Nc3cc(F)cc(F)c3)[nH]c(=O)c12` [Compound 10d]: the “SARS-CoV-2 IC50” value is reported as “no inhibitory effects”. On to `O=c1[nH]c(Nc2cc(Cl)cc(Cl)c2)nc2cc(N3CCOCC3)ccc12` [Compound 11k], for which the “SARS-CoV-2 IC50” value is “no anti-SARS-CoV-2 activity”. As for `O=c1[nH]c(Nc2cc(Cl)cc(Cl)c2)nc2cc(O)ccc12` [Compound 11g], the “SARS-CoV-2 IC50” value is recorded as “no inhibitory effects”. For `Cc1cc(C)c2nc(Nc3cc(F)cc(F)c3)[nH]c(=O)c2c1` [Compound 10h], the “SARS-CoV-2 IC50” value is recorded as “no inhibitory effects”. On the same count and under the same terms, to `COc1cccc2nc(Nc3cc(Cl)cc(Cl)c3)[nH]c(=O)c12` [Compound 11d] belongs “no inhibitory effects”; to `O=c1[nH]c(Nc2ccc(F)cc2)nc2cc(Cl)ccc12` [Compound 9c], “no inhibitory effect”.

On to `O=c1[nH]c(Nc2cc(F)cc(F)c2)nc2cc(O)ccc12` [Compound 10g], for which the “SARS-CoV-2 IC50” value is “no inhibitory effects”. The same measure, in the same setting: to `Nc1ccc2c(=O)[nH]c(Nc3cc(F)cc(F)c3)nc2c1` [Compound 10c] belongs “no inhibitory effects”; to `Nc1ccc2c(=O)[nH]c(Nc3cc(Cl)cc(Cl)c3)nc2c1` [Compound 11c], “no inhibitory effects”; to `Cc1cc(C)c2nc(Nc3cc(Cl)cc(Cl)c3)[nH]c(=O)c2c1` [Compound 11h, 2-((3,5-Dichlorophenyl)amino)-6,8-dimethylquinazolin-4(3H)-one], “no inhibitory effects”.

System in a further data set: not listed separately
As to the kind of experiment: in vivo. The settings on record: rat, po, 10 mg/kg.
For the compound `O=c1[nH]c(Nc2cc(Cl)cc(Cl)c2)nc2cccc(O)c12` [Compound 11e, 2-((3,5-dichlorophenyl)amino)-5-hydroxyquinazolin-4(3H)-one], the Cmax was 60 ng/mL.

The test system of the next data set is SARS-CoV-2. As to the kind of experiment: microbe, parasite or virus in culture. The settings on record: Severe acute respiratory syndrome coronavirus 2, Vero, read-out: SARS-CoV-2 IC50.
Turning to `COc1cccc(Nc2nc3cc(Cl)ccc3c(=O)[nH]2)c1` [Compound 9h], the IC50 is over 11 µM. On the same count and under the same terms, in the case of `O=c1[nH]c(N2CCCCC2)nc2cc(Cl)ccc12` [Compound 9q] it was over 14 µM; in that of `CC(C)Nc1nc2cc(Cl)ccc2c(=O)[nH]1` [Compound 9o], over 14 µM. On to `CCCCNc1nc2cc(Cl)ccc2c(=O)[nH]1` [Compound 9p], for which the IC50 was over 14 µM.

With `O=c1[nH]c(Nc2cc(Cl)cc(Cl)c2)nc2cc(Cl)ccc12` [Compound 9g, 7-chloro-2-((3,5-dichlorophenyl)amino)quinazolin-4(3H)-one], the IC50 was under 0.25 µM. `O=c1[nH]c(NCC2CCCCC2)nc2cc(Cl)ccc12` [Compound 9n]: the IC50 is over 14 µM. Consider `O=c1[nH]c(Nc2cc(Cl)cc(Cl)c2)nc2cccc(O)c12` [Compound 11e, 2-((3,5-dichlorophenyl)amino)-5-hydroxyquinazolin-4(3H)-one], for which the IC50 was under 0.25 µM.
